Laboratory results from the NIST ThermoML archive (doi:10.1016/j.jct.2016.04.014).
Numbers after ± are expanded uncertainties.

Conditions: Liquid, Vibrating tube method

## CCCCCCC [heptane]
323.15 K, 40000 kPa
  mass density: 694.1 ± 1.8 kg/m3
323.15 K, 45000 kPa
  mass density: 697.5 ± 1.8 kg/m3
323.15 K, 50000 kPa
  mass density: 700.7 ± 1.9 kg/m3
323.15 K, 55000 kPa
  mass density: 703.7 ± 1.9 kg/m3
323.15 K, 60000 kPa
  mass density: 706.4 ± 1.9 kg/m3
328.15 K, 100 kPa
  mass density: 653.9 ± 1.7 kg/m3
328.15 K, 1000 kPa
  mass density: 654.9 ± 1.7 kg/m3
328.15 K, 5000 kPa
  mass density: 659.3 ± 1.7 kg/m3
328.15 K, 10000 kPa
  mass density: 664.5 ± 1.7 kg/m3
328.15 K, 15000 kPa
  mass density: 669.5 ± 1.7 kg/m3
328.15 K, 20000 kPa
  mass density: 674.3 ± 1.8 kg/m3
328.15 K, 25000 kPa
  mass density: 678.8 ± 1.8 kg/m3
328.15 K, 30000 kPa
  mass density: 683 ± 1.8 kg/m3
328.15 K, 35000 kPa
  mass density: 687 ± 1.8 kg/m3
328.15 K, 40000 kPa
  mass density: 690.8 ± 1.8 kg/m3
328.15 K, 45000 kPa
  mass density: 694.3 ± 1.8 kg/m3
328.15 K, 50000 kPa
  mass density: 697.6 ± 1.9 kg/m3
328.15 K, 55000 kPa
  mass density: 700.6 ± 1.9 kg/m3
328.15 K, 60000 kPa
  mass density: 703.3 ± 1.9 kg/m3
333.15 K, 100 kPa
  mass density: 649.5 ± 1.7 kg/m3
333.15 K, 1000 kPa
  mass density: 650.6 ± 1.7 kg/m3
333.15 K, 5000 kPa
  mass density: 655.1 ± 1.7 kg/m3
333.15 K, 10000 kPa
  mass density: 660.5 ± 1.7 kg/m3
333.15 K, 15000 kPa
  mass density: 665.7 ± 1.8 kg/m3
333.15 K, 20000 kPa
  mass density: 670.6 ± 1.8 kg/m3
333.15 K, 25000 kPa
  mass density: 675.2 ± 1.8 kg/m3
333.15 K, 30000 kPa
  mass density: 679.6 ± 1.8 kg/m3
333.15 K, 35000 kPa
  mass density: 683.7 ± 1.8 kg/m3
333.15 K, 40000 kPa
  mass density: 687.5 ± 1.8 kg/m3
333.15 K, 45000 kPa
  mass density: 691.1 ± 1.8 kg/m3
333.15 K, 50000 kPa
  mass density: 694.4 ± 1.9 kg/m3
333.15 K, 55000 kPa
  mass density: 697.4 ± 1.9 kg/m3
333.15 K, 60000 kPa
  mass density: 700.2 ± 1.9 kg/m3
343.15 K, 100 kPa
  mass density: 640.5 ± 1.7 kg/m3
343.15 K, 1000 kPa
  mass density: 641.6 ± 1.7 kg/m3
343.15 K, 5000 kPa
  mass density: 646.5 ± 1.7 kg/m3
343.15 K, 10000 kPa
  mass density: 652.3 ± 1.7 kg/m3
343.15 K, 15000 kPa
  mass density: 657.8 ± 1.8 kg/m3
343.15 K, 20000 kPa
  mass density: 663.1 ± 1.8 kg/m3
343.15 K, 25000 kPa
  mass density: 668 ± 1.8 kg/m3
343.15 K, 30000 kPa
  mass density: 672.6 ± 1.8 kg/m3
343.15 K, 35000 kPa
  mass density: 676.9 ± 1.8 kg/m3
343.15 K, 40000 kPa
  mass density: 681 ± 1.8 kg/m3
343.15 K, 45000 kPa
  mass density: 684.7 ± 1.9 kg/m3
343.15 K, 50000 kPa
  mass density: 688.1 ± 1.9 kg/m3
343.15 K, 55000 kPa
  mass density: 691.3 ± 1.9 kg/m3
343.15 K, 60000 kPa
  mass density: 694.1 ± 1.9 kg/m3
353.15 K, 100 kPa
  mass density: 631.3 ± 1.7 kg/m3
353.15 K, 1000 kPa
  mass density: 632.5 ± 1.7 kg/m3
353.15 K, 5000 kPa
  mass density: 637.8 ± 1.7 kg/m3
353.15 K, 10000 kPa
  mass density: 644 ± 1.7 kg/m3
353.15 K, 15000 kPa
  mass density: 649.9 ± 1.8 kg/m3
353.15 K, 20000 kPa
  mass density: 655.5 ± 1.8 kg/m3
353.15 K, 25000 kPa
  mass density: 660.7 ± 1.8 kg/m3
353.15 K, 30000 kPa
  mass density: 665.6 ± 1.8 kg/m3
353.15 K, 35000 kPa
  mass density: 670.2 ± 1.8 kg/m3
353.15 K, 40000 kPa
  mass density: 674.4 ± 1.8 kg/m3
353.15 K, 45000 kPa
  mass density: 678.3 ± 1.9 kg/m3
353.15 K, 50000 kPa
  mass density: 681.9 ± 1.9 kg/m3
353.15 K, 55000 kPa
  mass density: 685.1 ± 1.9 kg/m3
353.15 K, 60000 kPa
  mass density: 688 ± 1.9 kg/m3
363.15 K, 100 kPa
  mass density: 621.9 ± 1.7 kg/m3
363.15 K, 1000 kPa
  mass density: 623.2 ± 1.7 kg/m3
363.15 K, 5000 kPa
  mass density: 628.9 ± 1.7 kg/m3
363.15 K, 10000 kPa
  mass density: 635.6 ± 1.7 kg/m3
363.15 K, 15000 kPa
  mass density: 641.9 ± 1.8 kg/m3
363.15 K, 20000 kPa
  mass density: 647.9 ± 1.8 kg/m3
363.15 K, 25000 kPa
  mass density: 653.4 ± 1.8 kg/m3
363.15 K, 30000 kPa
  mass density: 658.6 ± 1.8 kg/m3
363.15 K, 35000 kPa
  mass density: 663.5 ± 1.8 kg/m3
363.15 K, 40000 kPa
  mass density: 667.9 ± 1.8 kg/m3
363.15 K, 45000 kPa
  mass density: 672 ± 1.9 kg/m3
363.15 K, 50000 kPa
  mass density: 675.7 ± 1.9 kg/m3
363.15 K, 55000 kPa
  mass density: 679 ± 1.9 kg/m3
363.15 K, 60000 kPa
  mass density: 681.9 ± 1.9 kg/m3
373.15 K, 1000 kPa
  mass density: 614.2 ± 2.7 kg/m3
373.15 K, 5000 kPa
  mass density: 620.2 ± 2.7 kg/m3
373.15 K, 10000 kPa
  mass density: 627.4 ± 2.7 kg/m3
373.15 K, 15000 kPa
  mass density: 634.1 ± 2.7 kg/m3
373.15 K, 20000 kPa
  mass density: 640.4 ± 2.7 kg/m3
373.15 K, 25000 kPa
  mass density: 646.3 ± 2.8 kg/m3
373.15 K, 30000 kPa
  mass density: 651.8 ± 2.8 kg/m3
373.15 K, 35000 kPa
  mass density: 656.9 ± 2.8 kg/m3
373.15 K, 40000 kPa
  mass density: 661.5 ± 2.8 kg/m3
373.15 K, 45000 kPa
  mass density: 665.8 ± 2.8 kg/m3
373.15 K, 50000 kPa
  mass density: 669.6 ± 2.8 kg/m3
373.15 K, 55000 kPa
  mass density: 673.1 ± 2.8 kg/m3
373.15 K, 60000 kPa
  mass density: 676.1 ± 2.9 kg/m3
393.15 K, 1000 kPa
  mass density: 594.6 ± 2.7 kg/m3
393.15 K, 5000 kPa
  mass density: 601.7 ± 2.7 kg/m3
393.15 K, 10000 kPa
  mass density: 610 ± 2.7 kg/m3
393.15 K, 15000 kPa
  mass density: 617.8 ± 2.7 kg/m3
393.15 K, 20000 kPa
  mass density: 625 ± 2.7 kg/m3
393.15 K, 25000 kPa
  mass density: 631.7 ± 2.8 kg/m3
393.15 K, 30000 kPa
  mass density: 637.9 ± 2.8 kg/m3
393.15 K, 35000 kPa
  mass density: 643.6 ± 2.8 kg/m3
393.15 K, 40000 kPa
  mass density: 648.7 ± 2.8 kg/m3
393.15 K, 45000 kPa
  mass density: 653.3 ± 2.8 kg/m3
393.15 K, 50000 kPa
  mass density: 657.4 ± 2.8 kg/m3
393.15 K, 55000 kPa
  mass density: 660.9 ± 2.8 kg/m3
393.15 K, 60000 kPa
  mass density: 663.9 ± 2.9 kg/m3
413.15 K, 1000 kPa
  mass density: 574.1 ± 2.7 kg/m3
413.15 K, 5000 kPa
  mass density: 582.3 ± 2.7 kg/m3
413.15 K, 10000 kPa
  mass density: 592 ± 2.7 kg/m3
413.15 K, 15000 kPa
  mass density: 600.9 ± 2.7 kg/m3
413.15 K, 20000 kPa
  mass density: 609.2 ± 2.8 kg/m3
413.15 K, 25000 kPa
  mass density: 616.9 ± 2.8 kg/m3
413.15 K, 30000 kPa
  mass density: 623.9 ± 2.8 kg/m3
413.15 K, 35000 kPa
  mass density: 630.2 ± 2.8 kg/m3
413.15 K, 40000 kPa
  mass density: 635.9 ± 2.8 kg/m3
413.15 K, 45000 kPa
  mass density: 640.9 ± 2.8 kg/m3
413.15 K, 50000 kPa
  mass density: 645.2 ± 2.8 kg/m3
413.15 K, 55000 kPa
  mass density: 648.9 ± 2.9 kg/m3
413.15 K, 60000 kPa
  mass density: 651.9 ± 2.9 kg/m3
